Experimental data reported in paper PMC8513079 (Molecules, 2021).
“Also recorded” adds a separate entry of the source. Where two headings read alike, the source gives them in different places.

Assays:
DOR (CHO-K1 OPRD1) = test: PathHunter β-arrestin recruitment assay, DOR; type: cell-based; conditions: 37 °C; for β-arrestin recruitment, DOR, in words: PathHunter, compared with 10^−5 M SNC-80, 90 min, n = 3–6
[1] = target: T1, DOR (T7-tag-DOR) in HEK293 cells (Homo sapiens, UniProt P41143); test: cADDis cAMP assay, DOR; type: cell-based
T1 construct: T7-tag; expressed in transfected cells

[2] = target: MOR (Halotag-MOR) in HEK293 cells (Homo sapiens, UniProt P35372); test: cell-based; type: cell-based
[3] = target: T2, MOR/DOR heteromer (Halotag-MOR/T7-tag-DOR) in HEK293 cells (Homo sapiens, UniProt P35372+P41143); test: cADDis cAMP assay, MOR/DOR heteromer; type: cell-based
T2 construct: HaloTag; T7-tag; expressed in transfected cells

MOR (OPRM1) = test: PathHunter β-arrestin recruitment assay, MOR; type: cell-based; conditions: compared with 10^−5 M DAMGO, 90 min, 37 °C, n = 3–6
[4] = target: T3, KOR (Halotag-KOR) in HEK293 cells (Homo sapiens, UniProt P41145); test: cell-based; conditions: HEK293, read-out: Emax, cAMP assay, KOR (Table 1)
T3 construct: HaloTag; expressed in transfected cells

DOR [5] = test: G-protein bias at DOR, cADDis cAMP versus PathHunter β-arrestin; type: cell-based; conditions: concluded from cADDis cAMP and PathHunter β-arrestin assays
DOR [6] = conditions: rubiscolin-5 compared with rubiscolin-6; cited from earlier work
Description: (§1) In view of the results of our cAMP assay, rubiscolins can be considered DOR-biased agonists, consistent with previous reports. […] Indeed, there is a structural ...

[7] = rubiscolin-6 versus rubiscolin-5; cited from earlier work
Description: as §1

receptor = conditions: rubiscolin-6 versus rubiscolin-5; cited from earlier work
Description: as §1

[8] = target: T3, KOR (Halotag-KOR) in HEK293 cells; test: CellKey impedance assay, antagonist mode, KOR; type: cell-based; conditions: combined with U-50488H (10^−11–10^−5 M); negative control at 10^−5 concentration; n = 3–4
[9] = cADDis cAMP assay, HEK293 T7-tag-DOR
[10] = HEK293, read-out: Emax, cAMP assay, DOR (Table 1)
[11] = HEK293, read-out: Emax, cAMP assay, DOR (Table 2)
[12] = HEK293, read-out: Emax, cAMP assay, MOR (Table 1)
[13] = HEK293, read-out: Emax, cAMP assay, MOR (Table 2)

T2 sequence (P35372 whole entry): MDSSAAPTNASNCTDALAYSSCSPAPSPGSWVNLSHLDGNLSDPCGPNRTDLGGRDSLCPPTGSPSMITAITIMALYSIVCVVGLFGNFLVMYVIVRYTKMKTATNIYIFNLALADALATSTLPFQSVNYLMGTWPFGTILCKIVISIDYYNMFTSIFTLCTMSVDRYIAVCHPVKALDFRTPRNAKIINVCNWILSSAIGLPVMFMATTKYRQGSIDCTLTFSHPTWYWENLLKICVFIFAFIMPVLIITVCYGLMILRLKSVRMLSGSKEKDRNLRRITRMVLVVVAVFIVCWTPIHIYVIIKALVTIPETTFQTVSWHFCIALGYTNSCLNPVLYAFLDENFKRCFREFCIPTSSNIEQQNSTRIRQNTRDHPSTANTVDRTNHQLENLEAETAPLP
T2 sequence (P41143 whole entry): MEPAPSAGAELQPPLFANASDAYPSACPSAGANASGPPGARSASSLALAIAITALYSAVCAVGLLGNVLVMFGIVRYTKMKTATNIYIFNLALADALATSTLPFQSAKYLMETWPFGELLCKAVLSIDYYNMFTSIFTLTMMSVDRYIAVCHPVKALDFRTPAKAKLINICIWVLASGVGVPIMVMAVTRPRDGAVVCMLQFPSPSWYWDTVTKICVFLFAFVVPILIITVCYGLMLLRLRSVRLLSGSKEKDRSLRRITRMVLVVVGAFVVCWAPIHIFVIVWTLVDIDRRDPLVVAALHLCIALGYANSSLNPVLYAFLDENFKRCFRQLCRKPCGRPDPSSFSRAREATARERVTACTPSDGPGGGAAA
Sequence of MOR (Halotag-MOR) in HEK293 cells (P35372 whole entry): as the sequence (P35372 whole entry) above
T1 sequence (P41143 whole entry): as the sequence (P41143 whole entry) above
T3 sequence (P41145 whole entry): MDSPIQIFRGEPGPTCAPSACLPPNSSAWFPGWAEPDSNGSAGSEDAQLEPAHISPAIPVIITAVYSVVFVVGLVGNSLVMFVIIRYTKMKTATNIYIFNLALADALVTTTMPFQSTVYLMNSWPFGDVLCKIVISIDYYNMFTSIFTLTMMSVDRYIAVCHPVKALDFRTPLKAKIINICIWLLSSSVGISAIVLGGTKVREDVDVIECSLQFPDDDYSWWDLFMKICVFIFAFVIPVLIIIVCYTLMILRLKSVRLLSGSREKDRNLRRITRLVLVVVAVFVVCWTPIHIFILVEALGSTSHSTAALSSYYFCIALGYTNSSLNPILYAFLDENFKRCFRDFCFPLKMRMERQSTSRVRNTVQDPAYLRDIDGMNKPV

Compound	β-arrestin recruitment, DOR, in words (DOR (CHO-K1 OPRD1))	effect through G-protein-mediated pathway (cAMP), DOR, in words [1, 9]	EC50 [1] [nM]	Emax [1, 10] [%]	Emax [1, 11] [%]	Emax [4] [%]	Emax [2, 12] [%]	Emax [2, 13] [%]	G-protein bias / agonist type at DOR (DOR [5])	other results
ML335 [reference compound]	partially recruited β-arrestin through both MOR and DOR	full agonist for both MOR and DOR	–	–	–	–	–	–	–	pEC50, cAMP assay, DOR (Table 2) ([1]; -LogEC50; HEK293 T7-tag-DOR; means ± S.E.M. (n = 6–8), Figure 6; # p < 0.05 vs SNC-80): 7.5 ± 0.1 ^# M; Emax, cAMP assay, DOR (Table 2) ([1]; relative to 10^−5 M SNC-80; HEK293 T7-tag-DOR; forskolin-stimulated; 10^−11–10^−5 M; means ± S.E.M. (n = 6–8), Figure 6; # p < 0.05 vs SNC-80): 111.6 ± 3.6%; Emax, cAMP assay, MOR (Table 2) [2]: 112.5 ± 5.3%; effect through G-protein-mediated pathway (cAMP), MOR, in words [2]: full agonist for both MOR and DOR; pEC50, cAMP assay, MOR (Table 2) [2]: 7.6 ± 0.1 M; pEC50, cAMP assay, MOR/DOR (Table 2) ([3]; -LogEC50, means ± S.E.M. (n = 6–8), Figure 6, + p < 0.05 vs ML335): 7.0 ± 0.1 M; effect through G-protein-mediated pathway (cAMP), MOR/DOR heteromer, in words ([3]; cADDis cAMP assay, compared with ML335): full agonist of MOR/DOR; Emax, cAMP assay, MOR/DOR (Table 2) ([3]; relative to 10^−5 M ML335, cADDis sensor, 50 μM forskolin, 28 °C, 40 min reading, 10^−11–10^−5 M, means ± S.E.M. (n = 6–8), Figure 6, + p < 0.05 vs ML335): 100.0 ± 4.2%; β-arrestin recruitment, MOR, in words (MOR (OPRM1)): partially recruited β-arrestin through both MOR and DOR
H-YPLDL-OH [Rubiscolin-5, H-Tyr-Pro-Leu-Asp-Leu-OH]	the most irrelevant with regard to the activity through the β-arrestin-mediated pathway; also recorded: equivalently negligible	–	501	78.4 ± 6.7	78.4 ± 6.7	9.6 ± 9	27.5 ± 5.5	27.5 ± 5.5	G-protein-biased DOR full agonists without affecting MOR and KOR	G-protein bias (bias factor), previous study (DOR [6]): more G-protein-biased than rubiscolin-6
C=CCN1C[C@H](C)N([C@H](c2ccc(C(=O)N(CC)CC)cc2)c2cccc(OC)c2)C[C@H]1C [SNC-80, (+)-4-[(aR)-a-((2S,5R)-4-allyl-2,5-dimethyl-1-piperazinyl)-3-methoxybenzyl]-N,N-diethylbenzamide, reference compound]	–	–	–	–	–	–	–	–	–	Emax, β-arrestin recruitment, DOR (DOR (CHO-K1 OPRD1); relative to 10^−5 M SNC-80, 90 min stimulation, luminescence, 10^−11–10^−5 M, means ± S.E.M. (n = 3–6), Figure 5B): 100.0 ± 2.6%
H-YPLDLF-OH [Rubiscolin-6, H-Tyr-Pro-Leu-Asp-Leu-Phe-OH]	the most irrelevant with regard to the activity through the β-arrestin-mediated pathway; also recorded: equivalently negligible	robust effect on DOR at 10^−5 concentration; also recorded: relatively stronger than rubiscolin-5 in activating the G-protein-mediated intracellular pathway	316	103 ± 4.1	103 ± 4.1	39.8 ± 20.5	14.3 ± 3.2	14.3 ± 3.2	G-protein-biased DOR full agonists without affecting MOR and KOR	potency in analgesia relative to rubiscolin-5 [7]: about twice as potent in analgesia as rubiscolin-5; receptor affinity relative to rubiscolin-5 (receptor): higher receptor affinity
Oc1ccc2c3c1O[C@H]1c4[nH]c5c(c4C[C@@]4(O)[C@@H](C2)N(CC2CC2)CC[C@]314)C[C@@]1(O)[C@H]2Cc3ccc(O)c4c3[C@@]1(CCN2CC1CC1)[C@H]5O4 [norBNI, norbinaltorphimine]	–	–	–	–	–	–	–	–	–	antagonistic effect, CellKey, KOR [8]: completely suppressed the agonistic effects of the positive control
C[C@@H](NC(=O)[C@@H](N)Cc1ccc(O)cc1)C(=O)NCC(=O)N(C)[C@@H](Cc1ccccc1)C(=O)NCCO [DAMGO, D-Ala(2)-N-Me-Phe(4)-Gly-ol(5)-enkephalin, reference compound]	–	–	–	–	–	–	–	–	–	Emax ([1]; HEK293; read-out: Emax, cAMP assay, DOR (Table 1)): 90.9 ± 8.9%; Emax ([1]; HEK293; read-out: Emax, cAMP assay, DOR (Table 2)): 90.9 ± 8.9%; Emax ([3]; relative to 10^−5 M ML335, cADDis sensor, 50 μM forskolin, 28 °C, 40 min reading, 10^−11–10^−5 M, means ± S.E.M. (n = 6–8), Figure 6, + p < 0.05 vs ML335, read-out: Emax, cAMP assay, MOR/DOR (Table 2)): 91.1 ± 5.4%
